Values after ≈ are worked out from the molar mass of the structure shown.
Experiments:
Type in all cases: cell-based
[1] = test system: A549 (human non-small lung cell); test: In vitro antitumor effect against human tumor cell lines, SRB assay, A549; conditions: A549 cells, 48 hours
Procedure: (§1) In vitro antitumor effect against human tumor cell lines.
(§2) a. Human solid tumor cell lines, A549(non-small lung cell), SKMEL-2(melanoma), HCT-15(colon), SKOV-3(ovarian), XF-498(CNS) were cultured at 37° C. in 5% CO2 incubators using RPMI 1640 media containing 10% FBS, while they were transfer-cultured successively once or twice per week. Cell cultures were dissolved in a solution of 0.25% trypsin and 3 mM CDTA PBS(−) and then cells were separated from media which the cells were sticked on.
(§3) b. 5×10^3˜2×10^4 cells were added into each well of 96-well plate and cultured in 5% CO2 incubator, at 37° C., for 24 hours.
(§4) c. Each sample drug was dissolved in a little DMSO and diluted with the used medium to a prescribed concentration for experiments, wherein the final concentration of DMSO was controlled below 0.5%.
(§5) d. Medium of each well cultured for 24 hours as above b. was removed by aspiration. Each 200 μl of drug samples prepared in c. was added into each well and the wells were cultured for 48 hours. Tz(time zero) plates were collected at the point of time drugs were added.
(§6) e. According to the SRB assay method, cell fixing with TCA, staining with 0.4% SRB solution, washing with 1% acetic acid and elution of dye with 10 mM Tris solution were carried out on Tz plates and culture-ended plates, whereby OD values were measured at 520 nm.
(§7) a. Time zero(Tz) value was determined with measuring the SRB protein amounts of the Tz plates collected at the point of time drugs were added.
(§8) b. Control value(C) was determined with the OD values of wells untreated with a drug.
(§9) c. Drug-treated test value(T) was determined with the OD values of drug-treated wells.
(§10) d. Effects of drugs were estimated with growth stimulation, net growth inhibition, net killing etc., being calculated from Tz, C and T.
(§11) e. If T≧Tz, cellular response function was calculated by 100×(T−Tz)/(C−Tz), and if T<Tz, by 100×(T−Tz)/Tz.

SKOV-3 (human ovarian) = test: In vitro antitumor effect against human tumor cell lines, SRB assay, SKOV-3; conditions: SK-OV-3 cells, 48 hours
Procedure: as §1, §2, §3, §4, §5, §6, §7, §8, §9, §10, §11

SKMEL-2 (human melanoma) = test: In vitro antitumor effect against human tumor cell lines, SRB assay, SKMEL-2; conditions: SK-MEL-2 cells, 48 hours
Procedure: as §1, §2, §3, §4, §5, §6, §7, §8, §9, §10, §11

XF 498 (human CNS) = test: In vitro antitumor effect against human tumor cell lines, SRB assay, XF 498; conditions: XF-498 cells, 48 hours
Procedure: as §1, §2, §3, §4, §5, §6, §7, §8, §9, §10, §11

HCT-15 (human colon) = test: In vitro antitumor effect against human tumor cell lines, SRB assay, HCT-15; conditions: HCT 15 cells, 48 hours
Procedure: as §1, §2, §3, §4, §5, §6, §7, §8, §9, §10, §11

Structure (SMILES) | ED50 A 549 [1] [ng/mL] | ED50 SK-OV-3 (SKOV-3 (human ovarian)) [ng/mL] | ED50 SK-MEL-2 (SKMEL-2 (human melanoma)) [ng/mL] | ED50 XF-498 (XF 498 (human CNS)) [ng/mL] | ED50 HCT 15 (HCT-15 (human colon)) [ng/mL]
COc1nc(C)c(CO)cc1N=C(NO)N1CCN(c2cc(F)cc(F)c2)CC1 [Example 127, N-Hydroxy-N′-(5-hydroxymethyl-2-methoxy-6-methylpyridin-3-yl)-[4-(3,5-difluorophenyl)piperazin-1-yl]carboxyimidamide] | 13 (≈ 0.0319 µM) | 11 (≈ 0.027 µM) | 5 (≈ 0.0123 µM) | 6 (≈ 0.0147 µM) | 2 (≈ 0.00491 µM)
COc1nc(C)c(C(C)=O)cc1N=C(NO)N1CCN(c2cc(C)cc(C)c2)CC1 [Example 132, N-Hydroxy-N′-(5-acetyl-2-methoxy-6-methylpyridin-3-yl)-[4-(3,5-dimethylphenyl)piperazin-1-yl]carboxyimidamide] | 11 (≈ 0.0267 µM) | 7 (≈ 0.017 µM) | 1 (≈ 0.00243 µM) | 2 (≈ 0.00486 µM) | 1 (≈ 0.00243 µM)
COc1cc(OC)cc(N2CCN(C(=Nc3cc(C(C)=O)c(C)nc3OC)NO)CC2)c1 [Example 133, N-Hydroxy-N′-(5-acetyl-2-methoxy-6-methylpyridin-3-yl)-[4-(3,5-dimethoxyphenyl)piperazin-1-yl]carboxyimidamide] | 0.1 (≈ 0.000225 µM) | 0.1 (≈ 0.000225 µM) | 0.1 (≈ 0.000225 µM) | 0.1 (≈ 0.000225 µM) | 0.1 (≈ 0.000225 µM)
COc1nc(C)c(C(C)O)cc1N=C(NO)N1CCN(c2cc(C)cc(C)c2)CC1 (stereo not drawn) [Example 138, N-Hydroxy-N′-[5-(1-hydroxyethyl)-2-methoxy-6-methylpyridin-3-yl]-[4-(3,5-dimethylphenyl)piperazin-1-yl]carboxyimidamide] | 74 (≈ 0.179 µM) | 30 (≈ 0.0725 µM) | 16 (≈ 0.0387 µM) | 18 (≈ 0.0435 µM) | 6 (≈ 0.0145 µM)
COc1cc(OC)cc(N2CCN(C(=Nc3cc(C(C)O)c(C)nc3OC)NO)CC2)c1 (stereo not drawn) [Example 139, N-Hydroxy-N′-[5-(1-hydroxyethyl)-2-methoxy-6-methylpyridin-3-yl]-[4-(3,5-dimethoxyphenyl)piperazin-1-yl]carboxyimidamide] | 0.7 (≈ 0.00157 µM) | 0.7 (≈ 0.00157 µM) | 0.2 (≈ 0.000449 µM) | 0.3 (≈ 0.000673 µM) | 0.4 (≈ 0.000898 µM)
CCc1nc(OC)c(N=C(NO)N2CCN(c3cc(OC)cc(OC)c3)CC2)cc1C(=O)OC [Example 159, N-Hydroxy-N′-(6-ethyl-5-methoxycarbonyl-2-methoxypyridin-3-yl)-[4-(3,5-dimethoxyphenyl)piperazin-1-yl]carboxyimidamide] | 29 (≈ 0.0612 µM) | 10 (≈ 0.0211 µM) | 2 (≈ 0.00422 µM) | 6 (≈ 0.0127 µM) | 0.6 (≈ 0.00127 µM)
COc1cc(OC)cc(N2CCN(C(=Nc3cc4ccccc4nc3OC)NO)CC2)c1 [Example 172, N-Hydroxy-N′-(2-methoxyquinolin-3-yl)-[4-(3,5-dimethoxyphenyl)-piperazin-1-yl]carboxyimidamide] | 70 (≈ 0.16 µM) | 80 (≈ 0.183 µM) | 20 (≈ 0.0457 µM) | 30 (≈ 0.0686 µM) | 20 (≈ 0.0457 µM)
COc1nc2ccccc2cc1N=C(NO)N1CCN(c2cc(C)cc(C)c2)CC1 [Example 173, N-Hydroxy-N′-(2-methoxyquinolin-3-yl)-[4-(3,5-dimethylphenyl)-piperazin-1-yl]carboxyimidamide] | 400 (≈ 0.986 µM) | 860 (≈ 2.12 µM) | 150 (≈ 0.37 µM) | 210 (≈ 0.518 µM) | 180 (≈ 0.444 µM)
COc1nc2ccccc2cc1N=C(NO)N1CCN(c2cccc(Cl)c2)CC1 [Example 176, N-Hydroxy-N′-(2-methoxyquinolin-3-yl)-[4-(3-chlorophenyl)-piperazin-1-yl]carboxyimidamide] | 1.2 (≈ 0.00291 µM) | 0.9 (≈ 0.00219 µM) | 0.3 (≈ 0.000728 µM) | 0.1 (≈ 0.000243 µM) | 0.1 (≈ 0.000243 µM)
